Data as given in paper PMC10744336, “Functional Identification of Olfactory Receptors of Cnaphalocrocis medinalis (Lepidoptera: Crambidae) for Plant Odor” (Insects, 2023).

Experiments:
Test in all cases: two-electrode voltage clamp, Xenopus oocytes
Format in all cases: cell-based
CmedOR32/ORco = molecular target: T1, CmedOR32/ORco (Cnaphalocrocis medinalis, UniProt A0A1B2G2M9); settings: agonist; with CmedORco; -80 mV; pH 7.5; 15 s stimulus; concentration contradictory (text 0.1 μM, figure legend 10^-4 M)
T1 construct: full ORF cloned in pT7Ts; cRNA co-injected with CmedORco in Xenopus oocytes; with Odorant receptor coreceptor
T1 sequence (A0A1B2G2M9 1-389): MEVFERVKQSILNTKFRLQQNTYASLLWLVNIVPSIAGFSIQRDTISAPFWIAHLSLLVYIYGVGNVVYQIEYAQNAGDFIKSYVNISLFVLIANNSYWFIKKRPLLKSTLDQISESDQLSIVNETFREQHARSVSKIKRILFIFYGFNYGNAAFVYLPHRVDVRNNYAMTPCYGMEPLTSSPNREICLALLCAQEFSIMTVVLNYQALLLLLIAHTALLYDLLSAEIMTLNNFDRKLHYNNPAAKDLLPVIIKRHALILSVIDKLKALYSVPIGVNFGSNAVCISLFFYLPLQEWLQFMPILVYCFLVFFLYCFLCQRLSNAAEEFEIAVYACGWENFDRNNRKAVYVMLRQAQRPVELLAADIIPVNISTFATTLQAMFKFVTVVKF
T1 sequence (H9XFD5 1-473 partner): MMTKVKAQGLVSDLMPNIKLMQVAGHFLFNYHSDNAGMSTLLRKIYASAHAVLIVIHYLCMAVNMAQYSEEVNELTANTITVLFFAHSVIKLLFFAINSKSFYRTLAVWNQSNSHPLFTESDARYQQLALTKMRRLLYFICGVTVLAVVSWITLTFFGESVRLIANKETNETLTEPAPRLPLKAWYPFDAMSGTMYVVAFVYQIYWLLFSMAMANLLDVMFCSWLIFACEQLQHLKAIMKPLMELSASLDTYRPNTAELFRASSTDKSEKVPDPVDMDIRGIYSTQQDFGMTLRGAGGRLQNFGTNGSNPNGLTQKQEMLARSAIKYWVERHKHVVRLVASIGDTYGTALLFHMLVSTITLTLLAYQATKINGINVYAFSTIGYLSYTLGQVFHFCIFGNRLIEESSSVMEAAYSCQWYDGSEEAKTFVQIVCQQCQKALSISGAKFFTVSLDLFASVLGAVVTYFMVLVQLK

CmedOR31/ORco = molecular target: T2, CmedOR31/ORco (Cnaphalocrocis medinalis, UniProt A0A1B2G2M5); settings: agonist; with CmedORco; -80 mV; pH 7.5; 15 s stimulus; concentration contradictory (text 0.1 μM, figure legend 10^-4 M)
T2 construct: full ORF cloned in pT7Ts; cRNA co-injected with CmedORco in Xenopus oocytes; with Odorant receptor coreceptor
T2 sequence (A0A1B2G2M5 1-408): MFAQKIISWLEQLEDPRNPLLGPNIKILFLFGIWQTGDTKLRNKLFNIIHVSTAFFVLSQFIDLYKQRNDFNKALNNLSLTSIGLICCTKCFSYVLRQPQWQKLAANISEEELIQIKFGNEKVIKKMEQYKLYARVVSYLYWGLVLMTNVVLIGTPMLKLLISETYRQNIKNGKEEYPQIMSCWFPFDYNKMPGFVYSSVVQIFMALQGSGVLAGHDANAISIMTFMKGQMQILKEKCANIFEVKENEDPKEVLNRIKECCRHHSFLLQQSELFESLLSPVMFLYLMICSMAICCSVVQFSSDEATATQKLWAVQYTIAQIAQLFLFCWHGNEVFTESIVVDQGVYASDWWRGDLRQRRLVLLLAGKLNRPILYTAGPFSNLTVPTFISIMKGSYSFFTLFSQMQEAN
T2 sequence (H9XFD5 1-473 partner): T1 sequence (H9XFD5 1-473 partner)

CmedOR1/ORco [1] = molecular target: T3, CmedOR1/ORco (Cnaphalocrocis medinalis, UniProt A0A0U3A934); settings: agonist, with CmedORco, -80 mV, pH 7.5, 15 s stimulus, concentration contradictory (text 0.1 μM, figure legend 10^-4 M)
T3 construct: gene or1; full ORF cloned in pT7Ts; cRNA co-injected with CmedORco in Xenopus oocytes; with Odorant receptor coreceptor
T3 sequence (A0A0U3A934 1-448): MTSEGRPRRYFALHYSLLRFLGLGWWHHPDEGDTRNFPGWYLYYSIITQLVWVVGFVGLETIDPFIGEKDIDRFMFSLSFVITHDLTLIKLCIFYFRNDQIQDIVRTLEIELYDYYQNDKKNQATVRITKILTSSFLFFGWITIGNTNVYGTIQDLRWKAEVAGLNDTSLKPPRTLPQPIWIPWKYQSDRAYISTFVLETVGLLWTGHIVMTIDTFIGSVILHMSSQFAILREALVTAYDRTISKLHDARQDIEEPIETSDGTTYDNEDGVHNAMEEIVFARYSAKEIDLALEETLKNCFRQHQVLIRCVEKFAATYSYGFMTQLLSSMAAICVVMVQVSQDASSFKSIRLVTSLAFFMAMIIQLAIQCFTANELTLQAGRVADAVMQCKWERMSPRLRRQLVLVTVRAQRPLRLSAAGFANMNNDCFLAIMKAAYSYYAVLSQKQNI
T3 sequence (H9XFD5 1-473 partner): T1 sequence (H9XFD5 1-473 partner)

CmedOR1/ORco [2] = molecular target: T3, CmedOR1/ORco; settings: agonist; with CmedORco; -80 mV; pH 7.5; 15 s stimulus; 10^-4 M (b31 also prints 0.1 μM)

Row | SMILES | inward current (CmedOR32/ORco) | further results
1 | CCC/C=C/C=O [E2-hexenal] | plant foliar odorants cis-3-hexenyl acetate, E2-hexenal, and β-caryophyllene | 
2 | CCCC(=O)OCC [Ethyl butyrate] | floral volatile compounds methyl 2-methoxybenzoate, β-myrcene, and ethyl butyrate | 
3 | CC(C)=CCC/C(C)=C/CO [Geraniol] |  | inward current (CmedOR31/ORco): 128 ± 16 nA
4 | C=CC(C)(O)CCC=C(C)C (stereo not shown) [Linalool] |  | inward current (CmedOR1/ORco [1]): 64 ± 5 nA
5 | COC(=O)c1ccccc1OC [Methyl 2-methoxybenzoate] | floral volatile compounds methyl 2-methoxybenzoate, β-myrcene, and ethyl butyrate | 
6 | OCCc1ccccc1 [Phenethyl alcohol] |  | inward current (CmedOR1/ORco [1]; printed as two isomers, phenethyl alcohol and 2-phenethyl alcohol): 130 ± 10 nA
7 | O=CCc1ccccc1 [Phenylacetaldehyde] |  | inward current at 10^-4 M (CmedOR1/ORco [2]): 3200 ± 86 nA
8 | CC/C=C\CCOC(C)=O [cis-3-Hexenyl acetate] | CmedOR32 showed nonspecific responses to plant foliar odorants cis-3-hexenyl acetate | 
9 | C=C1CC/C=C(\C)CC[C@@H]2[C@@H]1CC2(C)C [β-Caryophyllene] | plant foliar odorants cis-3-hexenyl acetate, E2-hexenal, and β-caryophyllene | 
10 | C=CC(=C)CCC=C(C)C [β-Myrcene] | floral volatile compounds methyl 2-methoxybenzoate, β-myrcene, and ethyl butyrate | 
